One experiment addresses T1, Lyn kinase (human) (Homo sapiens, UniProt P07948).
T1 construct: purchased Upstate Biotechnology, Lake Placid, N.Y
The experiment in a line: Lyn Kinase Assay. Format: biochemical. The conditions noted are these: test concentration of 2 μM. A digest of the protocol: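 Radiometric filter-binding assay with recombinant human Lyn, poly(Glu,Tyr) substrate (0.1 mg/mL final), 5 μM ATP plus γ-33P-ATP in MOPS pH 7.5/Mg acetate buffer; 40 min at 30 °C, stopped with phosphoric acid, counted by scintillation. Reported as percent inhibition at 2 μM, with IC50 (μM) where determined.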

Another experiment addresses T2, c-Src kinase (human) (Homo sapiens, UniProt P12931).
T2 construct: purchased Upstate Biotechnology, Lake Placid, N.Y
Put plainly: c-Src Kinase Assay. Format: biochemical. The conditions noted are these: test concentration of 2 μM; multiple values are separate assay results. A digest of the protocol:
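Inhibition was read as 33P incorporation, counted on P30 filtermats, after a 40 min, 30° C reaction. Human c-Src acted on 100 μM Cdc2 peptide with 5 μM ATP (final), pH 7.0 MOPS/MgCl2. Values are percent inhibition at 2 μM compound, or IC50 where determined.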

The target in the next experiment is T3, HER-2 (Homo sapiens, UniProt P04626).
T3 construct: His6 with thrombin site (N); purchased Proqinase (Freiburg, Germany)
Put plainly: HER-2 Kinase Assay. Format: biochemical. Particulars: for inhibition at 1 µM: test concentration of 1 μM; for IC50: value in parentheses. A digest of the protocol: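 Read-out was scintillation counting of 33P incorporated into biotinylated polyGluTyr captured on streptavidin plates. Reactions ran 1 h at 30 °C with GST-fused HER-2 residues 679–1255, 1 μM ATP, Mn2+ and Mg2+ at pH 7.5; data given as percent inhibition at 1 μM, with IC50 where determined.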

The target of a further experiment is T4, EGFR (Homo sapiens, UniProt P00533).
T4 construct: The intracellular portion of EGFR started at nucleotide 2189 (corresponding to amino acid 667) and ended at the termination codon; made in house; host or cells: Sf9 insect cells (baculovirus)
The experiment in a line: EGFR Kinase Assay. Particulars: for IC50: GST-EGFR, ATP 5 μM; for inhibition at 2 µM: test concentration of 2 μM, compounds without an IC50, read-out: EGFR inhibition in percent. Format: biochemical. A digest of the protocol: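 Potency came from triplicate 16-point half-log titrations starting at 200 uM, with IC50 fitted from % inhibition against log concentration, or % inhibition at 2 μM otherwise. Reaction: Sf9-made GST–EGFR cytoplasmic region (aa 667 onward), biotin-polyGluTyr, 5 μM ATP with 33P tracer, pH 8.0 Tris/Mg/vanadate/DTT, 30 °C for 1 h; captured on streptavidin Flashplates and counted.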

For a further experiment, the system named is N87 cells. Put plainly: In Vivo Models - Inhibition of Tumor Growth, N87. The conditions noted are these: Mus musculus, po, 720 h, 100 mg/kg, oral daily for 30 days, athymic mice; read-out: percent inhibition N87. The procedure: In Vivo Models—Inhibition of Tumor Growth
The ability of test compounds to inhibit unregulated growth of human tumor cells in vivo was evaluated by implanting human tumor cells into the hindflank of athymic mice, administering a test compound and then quantifying any change in tumor size.
Human epidermoid A431 carcinoma, N87 cells and BT474 cells were implanted subcutaneously into the hindflank of female athymic mice (Charles River) and allowed to grow for 6-10 days. After a measurable tumor was established (as determined by baseline caliper measurement), the animal was administered an oral dose of the test compound daily for a period of 30 days. Tumor size was measured every five days and the degree of inhibition was determined by comparing drug-treated animals to vehicle-treated animals.
Variations of this method are intended to include intraperitoneal injection or intravenous infusion as the route of administration and administration of the test compound either alone or in a combination therapy.
The inhibition of tumor growth values are shown in Table 8 at various test concentrations, as indicated. For compounds with multiple values at one test concentration, each value represents a separate assay result.

Molecules are shown by their SMILES.

T2 sequence (P12931 whole entry): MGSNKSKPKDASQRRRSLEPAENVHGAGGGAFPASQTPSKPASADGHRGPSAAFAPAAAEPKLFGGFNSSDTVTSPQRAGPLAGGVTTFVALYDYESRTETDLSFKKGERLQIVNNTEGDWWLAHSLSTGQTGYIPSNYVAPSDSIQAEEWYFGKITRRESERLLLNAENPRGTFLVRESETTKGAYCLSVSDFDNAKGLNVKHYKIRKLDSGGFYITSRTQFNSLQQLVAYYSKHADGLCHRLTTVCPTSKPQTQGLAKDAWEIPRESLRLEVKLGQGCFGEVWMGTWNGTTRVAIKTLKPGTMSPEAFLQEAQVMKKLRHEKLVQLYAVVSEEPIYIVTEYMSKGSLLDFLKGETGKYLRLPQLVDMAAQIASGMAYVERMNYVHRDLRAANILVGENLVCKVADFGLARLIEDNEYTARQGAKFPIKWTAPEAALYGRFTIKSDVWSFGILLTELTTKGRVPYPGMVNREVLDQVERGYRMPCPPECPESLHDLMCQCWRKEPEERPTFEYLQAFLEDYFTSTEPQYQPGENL
T1 sequence (P07948 whole entry): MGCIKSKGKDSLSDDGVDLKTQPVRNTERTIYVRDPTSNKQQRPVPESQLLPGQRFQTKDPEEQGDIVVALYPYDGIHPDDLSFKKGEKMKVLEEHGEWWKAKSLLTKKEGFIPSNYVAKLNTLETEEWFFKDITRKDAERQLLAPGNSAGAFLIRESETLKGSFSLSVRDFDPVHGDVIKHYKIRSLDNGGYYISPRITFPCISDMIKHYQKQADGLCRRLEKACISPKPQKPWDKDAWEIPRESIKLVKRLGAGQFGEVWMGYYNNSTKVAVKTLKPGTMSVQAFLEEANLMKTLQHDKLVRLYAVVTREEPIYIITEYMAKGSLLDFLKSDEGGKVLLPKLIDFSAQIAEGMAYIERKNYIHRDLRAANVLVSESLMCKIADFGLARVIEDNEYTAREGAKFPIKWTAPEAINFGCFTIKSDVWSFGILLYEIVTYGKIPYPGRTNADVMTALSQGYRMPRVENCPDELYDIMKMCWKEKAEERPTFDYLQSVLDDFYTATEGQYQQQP
T4 sequence (P00533 669-1210 limits assumed): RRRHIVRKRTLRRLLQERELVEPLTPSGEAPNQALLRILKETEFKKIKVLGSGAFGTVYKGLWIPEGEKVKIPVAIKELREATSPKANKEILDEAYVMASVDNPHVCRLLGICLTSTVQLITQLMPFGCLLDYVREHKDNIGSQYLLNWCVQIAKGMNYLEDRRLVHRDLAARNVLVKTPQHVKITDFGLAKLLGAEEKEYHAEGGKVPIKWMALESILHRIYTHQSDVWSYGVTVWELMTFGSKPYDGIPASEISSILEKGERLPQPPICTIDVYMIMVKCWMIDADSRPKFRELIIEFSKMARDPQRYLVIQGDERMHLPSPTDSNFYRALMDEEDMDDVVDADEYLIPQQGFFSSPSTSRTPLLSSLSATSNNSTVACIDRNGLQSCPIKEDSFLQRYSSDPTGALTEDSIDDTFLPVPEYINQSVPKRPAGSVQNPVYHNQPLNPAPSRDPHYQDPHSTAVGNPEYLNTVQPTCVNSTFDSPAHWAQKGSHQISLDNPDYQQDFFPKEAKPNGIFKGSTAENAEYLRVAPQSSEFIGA
T3 sequence (P04626 679-1255): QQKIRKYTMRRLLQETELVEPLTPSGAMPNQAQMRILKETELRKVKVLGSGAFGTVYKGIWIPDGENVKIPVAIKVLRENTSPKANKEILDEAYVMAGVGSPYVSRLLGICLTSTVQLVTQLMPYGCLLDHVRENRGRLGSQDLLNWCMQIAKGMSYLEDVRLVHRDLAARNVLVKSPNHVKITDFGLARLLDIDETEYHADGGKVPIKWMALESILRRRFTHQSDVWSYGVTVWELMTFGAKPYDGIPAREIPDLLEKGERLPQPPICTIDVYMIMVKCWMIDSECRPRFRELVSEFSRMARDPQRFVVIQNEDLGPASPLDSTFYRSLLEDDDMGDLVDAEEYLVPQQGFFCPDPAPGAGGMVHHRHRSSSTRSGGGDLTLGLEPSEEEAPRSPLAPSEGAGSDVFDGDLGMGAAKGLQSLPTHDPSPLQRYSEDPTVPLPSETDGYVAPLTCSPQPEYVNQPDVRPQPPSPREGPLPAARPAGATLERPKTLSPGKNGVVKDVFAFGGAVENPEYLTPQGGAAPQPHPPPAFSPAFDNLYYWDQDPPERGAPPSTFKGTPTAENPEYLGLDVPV

For orientation: inhibition means the drop in the measured response relative to a control, in per cent. In general, IC50 refers to the concentration at which inhibition is half-maximal. For the compound `CN1CCN(Cc2ccc(NC(=O)c3sc4ncnc5c4c3NC(=O)N5c3ccccc3Cl)cc2)CC1` [Cpd 151, 5-(2-chloro-phenyl)-4-oxo-4,5-dihydro-3H-1-thia-3,5,6,8-tetraaza-acenaphthylene-2-carboxylic acid [4-(4-methyl-piperazin-1-ylmethyl)-phenyl]-amide], the inhibition at 2 µM against Lyn kinase (human) was 61%; against c-Src kinase (human) it was 53%. Moreover, the inhibition at 1 µM against HER-2 stood at 29%. Also, the midpoint of inhibition at EGFR, the IC50, lay at 603 nM.
Consider `O=C1Nc2csc3ncnc(c23)N1c1ccc2c(ccn2Cc2cccc(F)c2)c1` [Cpd 152, 5-[1-(3-fluoro-benzyl)-1H-indol-5-yl]-3H,5H-1-thia-3,5,6,8-tetraaza-acenaphthylen-4-one], for which the results for the inhibition at 2 µM at Lyn kinase (human) and on c-Src kinase (human) were 7% and -6%, respectively. Also, the IC50 on HER-2 was found to be 3720 nM; at EGFR, 333 nM.
Turning to `O=C(Nc1ccc(CN2CCOCC2)cc1)c1sc2ncnc3c2c1NC(=O)N3c1ccc(F)c(Br)c1` [Cpd 153, 5-(3-bromo-4-fluoro-phenyl)-4-oxo-4,5-dihydro-3H-1-thia-3,5,6,8-tetraaza-acenaphthylene-2-carboxylic acid (4-morpholin-4-ylmethyl-phenyl)-amide], the figures for the inhibition at 2 µM against Lyn kinase (human) and on c-Src kinase (human) were -4% and 16%, respectively. In addition, on HER-2, the inhibition at 1 µM is 70%. Also, the IC50 on HER-2 was determined as 294 nM; at EGFR it was 159 nM.
The corresponding values for `O=C(NCCCO)c1sc2ncnc3c2c1NC(=O)N3c1ccc(F)c(Br)c1` [Cpd 154, 5-(3-bromo-4-fluoro-phenyl)-4-oxo-4,5-dihydro-3H-1-thia-3,5,6,8-tetraaza-acenaphthylene-2-carboxylic acid (3-hydroxy-propyl)-amide] are 7%, 8%, 12%, over 10000 nM and 592 nM.
The corresponding values for `O=C(Nc1ccc(CN2CCCCC2)cc1)c1sc2ncnc3c2c1NC(=O)N3c1ccc(F)c(Br)c1` [Cpd 155, 5-(3-bromo-4-fluoro-phenyl)-4-oxo-4,5-dihydro-3H-1-thia-3,5,6,8-tetraaza-acenaphthylene-2-carboxylic acid (4-piperidin-1-ylmethyl-phenyl)-amide] are 41%, 18%, 88%, 327 nM and 28 nM.
`COc1cc(NC(=O)c2sc3ncnc4c3c2NC(=O)N4c2ccc(Cc3ccccc3)cc2)ccc1OCCN1CCCCC1` [Cpd 163, 5-(4-benzyl-phenyl)-4-oxo-4,5-dihydro-3H-1-thia-3,5,6,8-tetraaza-acenaphthylene-2-carboxylic acid [3-methoxy-4-(2-piperidin-1-yl-ethoxy)-phenyl]-amide]: the inhibition at 2 µM against Lyn kinase (human) is 55%; against c-Src kinase (human) it was 26%. For the same compound, the half-inhibitory concentration (IC50) at HER-2 is 278 nM; against EGFR it was 18 nM.
As to `O=C(Nc1ccc(CN2CCCCC2)cc1)c1sc2ncnc3c2c1NC(=O)N3c1ccc(Cc2ccccc2)cc1` [Cpd 164, 5-(4-benzyl-phenyl)-4-oxo-4,5-dihydro-3H-1-thia-3,5,6,8-tetraaza-acenaphthylene-2-carboxylic acid (4-piperidin-1-ylmethyl-phenyl)-amide], the inhibition at 2 µM came to 35% against Lyn kinase (human) and 25% at c-Src kinase (human). The values for the IC50 at HER-2 and at EGFR were 103 nM and 11 nM, respectively.
The like results for `O=C(Nc1ccc(CN2CCOCC2)cc1)c1sc2ncnc3c2c1NC(=O)N3c1ccc(Cc2ccccc2)cc1` [Cpd 165, 5-(4-benzyl-phenyl)-4-oxo-4,5-dihydro-3H-1-thia-3,5,6,8-tetraaza-acenaphthylene-2-carboxylic acid (4-morpholin-4-ylmethyl-phenyl)-amide] were, in that order, 39%, 29%, 157 nM and 23 nM.
The corresponding values for `O=C(Nc1ccc(CCN2CCCCC2)cc1)c1sc2ncnc3c2c1NC(=O)N3c1ccc(Oc2ccccc2)cc1` [Cpd 166, 4-oxo-5-(4-phenoxy-phenyl)-4,5-dihydro-3H-1-thia-3,5,6,8-tetraaza-acenaphthylene-2-carboxylic acid [4-(2-piperidin-1-yl-ethyl)-phenyl]-amide] are 51%, 22%, 171 nM and 21 nM.
The like results for `COc1cc(NC(=O)c2sc3ncnc4c3c2NC(=O)N4c2ccc(Oc3ccccc3)cc2)ccc1OCCN1CCOCC1` [Cpd 167, 4-oxo-5-(4-phenoxy-phenyl)-4,5-dihydro-3H-1-thia-3,5,6,8-tetraaza-acenaphthylene-2-carboxylic acid [3-methoxy-4-(2-morpholin-4-yl-ethoxy)-phenyl]-amide] were, in that order, 51%, 35%, 129 nM and 20 nM.
In the case of `O=C(O)c1sc2ncnc3c2c1NC(=O)N3c1ccc(Oc2ccccc2)cc1` [Cpd 168, 4-oxo-5-(4-phenoxy-phenyl)-4,5-dihydro-3H-1-thia-3,5,6,8-tetraaza-acenaphthylene-2-carboxylic acid], the inhibition at 2 µM was 28% on Lyn kinase (human) and -21% against c-Src kinase (human). The IC50 on HER-2 was found to be 12200 nM; on EGFR it was 452 nM.
As for `C[C@H](c1ccccc1)N1C(=O)Nc2c(C(=O)O)sc3ncnc1c23` [Cpd 170, 4-oxo-5-[(1R)-1-phenyl-ethyl]-4,5-dihydro-3H-1-thia-3,5,6,8-tetraaza-acenaphthylene-2-carboxylic acid], the inhibition at 2 µM against Lyn kinase (human) amounted to 12%; at c-Src kinase (human) it was 4%; on EGFR it was 11%. For the same compound, the IC50 at HER-2 is over 100000 nM.
The corresponding values for `C[C@H](c1ccccc1)N1C(=O)Nc2c(C(=O)NC3CCN(C)CC3)sc3ncnc1c23` [Cpd 173, 4-oxo-5-[(1R)-1-phenyl-ethyl]-4,5-dihydro-3H-1-thia-3,5,6,8-tetraaza-acenaphthylene-2-carboxylic acid (1-methyl-piperidin-4-yl)-amide] are -5%, -8%, -3% and over 100000 nM.
As for `O=C(Nc1ccc(CN2CCOCC2)cc1)c1sc2ncnc3c2c1NC(=O)N3c1ccc2c(cnn2Cc2cccc(F)c2)c1` [Cpd 175, 5-[1-(3-fluoro-benzyl)-1H-indazol-5-yl]-4-oxo-4,5-dihydro-3H-1-thia-3,5,6,8-tetraaza-acenaphthylene-2-carboxylic acid (4-morpholin-4-ylmethyl-phenyl)-amide], the inhibition at 2 µM against Lyn kinase (human) is 0%; against c-Src kinase (human), -1%. Besides, the IC50 is 515 nM at HER-2 and 130 nM against EGFR.
On to `Cc1cc(NC(=O)c2sc3ncnc4c3c2NC(=O)N4c2ccc(Oc3ccccc3)cc2)ccc1CN1CCOCC1` [Cpd 232, 4-oxo-5-(4-phenoxy-phenyl)-4,5-dihydro-3H-1-thia-3,5,6,8-tetraaza-acenaphthylene-2-carboxylic acid (3-methyl-4-morpholin-4-ylmethyl-phenyl)-amide], for which the inhibition in vivo at 100 mg/kg in the experiment on N87 cells turned out to be 30.3%. Moreover, the half-maximal inhibitory concentration (IC50) on HER-2 was 28 nM; against EGFR, 41 nM.
The like results for `CN(C)c1cc(NC(=O)c2sc3ncnc4c3c2NC(=O)N4c2ccc(Oc3ccccc3)cc2)ccc1CN1CCOCC1` [Cpd 257, 4-oxo-5-(4-phenoxy-phenyl)-4,5-dihydro-3H-1-thia-3,5,6,8-tetraaza-acenaphthylene-2-carboxylic acid (3-dimethylamino-4-morpholin-4-ylmethyl-phenyl)-amide] were, in that order, 71.2%, 24 nM and 96 nM.

Source of the values: patent publication US7579356B2, “Thia-tetraazaacenaphthylene kinase inhibitors” (Janssen Pharmaceutica NV, priority 2005, dated 2009).
